In patent US4107298A, “Antigenically active polypeptide and a process for its preparation” (AB Bonnierforetagen, priority 1976, dated 1978):
No end group written: not given here.

Test system: antibodies specific to TPA (prepared by using natural cancer antigen, CAPA or TPA)
Assay: hemagglutination inhibition test
Type: binding
Conditions: for immunological activity after coupling to inert albumin: coupled to inert bovine albumin, molar ratio about 1:1, by water soluble carbodiimide (EDC)
Excerpt: The polypeptide prepared according to the foregoing was investigated with regard to its ability to inhibit the hemagglutination reaction between tanned red sheep blood cells labelled with natural cancer antigen and antibodies prepared by using natural cancer antigen (CAPA or TPA). With regard to details concerning this technique reference is had to the above-identified Swedish patent application 73-08917-9 and U.S. Pat. No. 3,960,827. […] Said Unit for specific activity is defined as 1/6 of the quantity active polypeptide required to label 10^9 sheep blood cells so as to be fully agglutinated by a minimum number or amount of antibodies (maximum dilution of antibodies).
In Example 1 as described above the antigenic activity of the synthesized polypeptide was determined in the following manner.
For quantitative determination of the amount of polypeptide 7 mgs of the peptide are dissolved in 1.4 mls of buffer grade serum, i.e. a physiological saline solution containing 2% of inert human serum and buffered to a pH of about 7.5 with a phosphate buffer. Under serial dilution a series of samples of said solution having a decreasing polypeptide concentration is prepared and to each of said samples there is added a pre-determined amount of anti-serum containing antibodies specific to TPA. To each of the resulting samples there is then added, after incubation, a predetermined amount of the polypeptide carried on a particulate carrier, hemagglutination taking place to an extent corresponding to the amount of available antibodies. In parallel there is prepared a corresponding series of control samples containing known decreasing amounts of TPA. The diameters of the hemagglutination depositions of the control samples are then measured in their respective cavities on a serial dilution test plate, and the values of the diameters obtained are plotted against the TPA concentrations, an S-shaped curve being obtained, the intermediate part of which including an inflexion point as a steep inclination. The corresponding curve of the diameter of the depositions from the hemagglutination as a function of the TPA-concentrations is shown in the diagram of the appended drawing, as curve B.
In the same diagram the corresponding curve for the synthesized polypeptide is shown as A, and with knowledge of the specific activity of the TPA the specific activity of the synthesized polypeptide is found to be 0.024 Units per milligram of peptide.

## ALLNDELAQYLDLVRALEAANGQLEV [Example 1]
Basic environment only, pH 13, same period of time, no cyclohexanedione
  activity lowered: about 20%
Centrally positioned arginine A0 blocked with cyclohexanedione at pH 13
  loss of activity: 99.5%
Inhibition of hemagglutination between tanned red sheep blood cells labelled with natural cancer antigen and anti-TPA antibodies, compared with the TPA control curve
  specific activity: 0.024 U/mg
Treated with iodine at pH 9.5, 100 times excess
  activity disappears: 40-50%
Treated with iodine at pH 9.5, 1000 times excess
  activity lost: about 75%
Treated with iodine at pH 9.5, excess of about 10000 times in relation to tyrosine content
  activity lost: about 85%
Treated with iodine at pH 9.5, excess of only about 10 times
  activity of the polypeptide: not effected

## ALLNDILAQYLDLVRALEAANGRLEV [Example 25]
  immunological activity compared with the polypeptide of Example 1: about equally immunologically active

## AQYLDLVRALEAANGELEV [Example 3, Ala Gln Tyr Leu Asp Leu Val Arg Ala Leu Glu Ala Ala Asn Gly Glu Leu Glu Val]
  immunological activity compared with the polypeptide of Example 1: about equally immunologically active
  immunological activity after coupling to inert albumin: maintained

## DDRLAKYLDKVRALEAADG [Example 6, Asp Asp Arg Leu Ala Lys Tyr Leu Asp Lys Val Arg Ala Leu Glu Ala Ala Asp Gly]
  immunological activity compared with the polypeptide of Example 1: about equally immunologically active

## LNDELAQYLDLVRALEAANGRLEV [Example 4]
  immunological activity compared with the polypeptide of Example 1: about equally immunologically active
  immunological activity after coupling to inert albumin: maintained

## NDILAQYLDLVRALEAANG [Example 5, Asn Asp Ile Leu Ala Gln Tyr Leu Asp Leu Val Arg Ala Leu Glu Ala Ala Asn Gly]
  immunological activity compared with the polypeptide of Example 1: about equally immunologically active

## TDLDDRLAKYLDKVRALEAADGELEV [Example 2]
  immunological activity compared with the polypeptide of Example 1: about equally immunologically active
